From paper PMC8395767, “Worsening of the Toxic Effects of (±)Cis-4,4′-DMAR Following Its Co-Administration with (±)Trans-4,4′-DMAR: Neuro-Behavioural, Physiological, Immunohistochemical and Metabolic Studies in Mice” (International Journal of Molecular Sciences, 2021)

How the values were obtained:
[1] = test system: HSP70; assay: Immunohistochemistry, frontal cortex: HSP70; assay type: in vivo, mice
Source text: (§1) Following the acute death or the sacrifice of the animals (after 5-h observation period by dislocation of the spine), brains were taken. These were fixed in 4% buffered formalin and then sampled and incorporated into the paraffin (Leica ASP300 processor, Histoline TEC2900 incorporator; Leica Microsystems Srl, Buccinasco, Milano, Italy). Subsequently, the cut (performed with the Leica HistoCore autocut microtome; Leica Microsystems Srl, Buccinasco, Milano, Italy) was designed to create sections with a thickness of 5 µm for each sample.
(§2) On 5-µm-thick paraffined […] sections, we evaluated the expression of a panel of markers: heat shock proteins (HSP27, HSP70, HSP90), SMAC/DIABLO, NF-kB, iNOS, NOX-2, NT, 8-OHDG.
(§3) We used a detection system composed of a biotinylated secondary antibody and HRP-conjugated streptavidin (4plus HRP Universal Detection, Biocare Medical). 3′-,3Diaminobenzidine (DAB) and H2O2 (Betazoid DAB Chromogen Kit, Biocare Medical, Concord, CA, USA) were used as chromogen/substrate. […] In the pictures (sections of the frontal cortex; Figure 3, Figure 4 and Figure 5) to evaluate the variation in the expression of markers (Smac, NOX2, iNOS, 8-OHdG, NT, HSP27, HSP70, HSP90) following treatments, the change in intensity of brown colour (staining of the immunohistochemical technique) in the control and treated tissue was measured. Quantification of Smac, NOX2, iNOS, 8-OHdG, NT, HSP27, HSP70 and HSP90 positive-stained areas was performed by the ImageJ software (imagej.nih.gov/ij/ Accessed date 12 May 2020). […] Positivity was expressed as an extension of the stained analysed area.
(§4) Sweating and salivation were expressed as frequency (e.g., % of animals that developed symptoms); psychomotor agitation was expressed as frequency (% of animals) and duration (total time in mins). Core temperature values were expressed as the difference between control temperature (before injection) and temperature following drug administration (Δ°C). Aggressiveness was expressed as frequency (% of animals which become aggressive) and score (number of bites). […]

[2] = test system: iNOS; assay: Immunohistochemistry, frontal cortex: iNOS; assay type: in vivo, mice
Source text: as §1, §2, §3, §4

[3] = test system: 8-OHdG; assay: Immunohistochemistry, frontal cortex: 8-OHdG; assay type: in vivo, mice; conditions: for Immunoreactivity of 8-OHdG in the frontal cortex: 30 and 60 mg/kg, vs control
Source text: as §1, §2, §3, §4

[4] = recent pharmacokinetic study; cited from earlier work
[5] = test system: Smac/DIABLO; assay: Immunohistochemistry, frontal cortex: Smac/DIABLO; assay type: in vivo, mice
Source text: as §1, §2, §3, §4

[6] = Excretion studies on urine samples (LC-MS/MS); assay type: in vivo, mice
Protocol: To study the possible metabolic interaction between cis and trans isomers, we chose to evaluate urinary excretion and metabolic profile of 4,4′-DMAR, as this allowed us to study and correlate physiological and neuro-behavioural responses in the same individual. For the in vivo studies, three different groups of mice were selected. To the first group, a dose of 10 mg/kg of cis-4,4′-DMAR was administered. To the second group, a dose of 10 mg/kg of both cis and trans-4,4′-DMAR was administered. The third group was selected for the collection of urine blank samples. Urine samples were collected in the range of 0–6 h after 4,4′-DMAR or vehicle were intraperitoneally injected.
Urine samples were treated and analysed through a protocol already used by our group for the analysis of the excretion of stimulant drugs in mice. Briefly, our protocol allowed the conversion of conjugated metabolites (i.e., sulfo- and glucorono-conjugates) to phase I metabolites after two hydrolysis steps. […] The residue was reconstituted with 50 μL of mobile phase and analysed with a targeted LC-MS/MS technique. In details, samples were analysed using an Agilent 1200 series HPLC instrument equipped with a SUPELCO Discovery C18 column (15 cm × 2.1 mm × 5 µm) coupled with an API4000 QqQ mass spectrometer (Sciex, 500 Old Connecticut Path, Framingham, MA, USA). […]

| SMILES | Immunoreactivity of HSP70 in the frontal cortex ([1]; 10 mg/kg alone) | Immunoreactivity of HSP70 in the frontal cortex ([1]; 30 and 60 mg/kg, vs control) | Immunoreactivity of iNOS in the frontal cortex ([2]; 60 mg/kg, vs control) | Immunoreactivity of iNOS in the frontal cortex ([2]; 60 mg/kg, vs control, listed as (±)cis) | Immunoreactivity of 8-OHdG in the frontal cortex [3] | Immunoreactivity of 8-OHdG in the frontal cortex ([3]; listed as (±)cis) | Metabolism and excretion in the mouse urine [4] | Immunoreactivity of Smac/DIABLO in the frontal cortex ([5]; 30 and 60 mg/kg, vs control) | Immunoreactivity of Smac/DIABLO in the frontal cortex ([5]; 30 and 60 mg/kg, vs control, listed as (±)cis) | Urinary excretion of the parent compound (normalised to the sum of 4,4′-DMAR and its metabolites, Figure 7B) ([6]; co-administered with (±)trans-4,4′-DMAR 10 mg/kg, vs cis alone) | Immunoreactivity of HSP70 in the frontal cortex ([1]; 30 mg/kg alone) | Immunoreactivity of iNOS in the frontal cortex ([2]; 30 mg/kg alone) | Expression of 8-OHdG in the frontal cortex ([3]; 30 mg/kg alone) | Immunoreactivity of Smac/DIABLO in the frontal cortex ([5]; 30 mg/kg alone) | Phase I/II metabolism ([6]; mice urine) |
| --- | --- | --- | --- | --- | --- | --- | --- | --- | --- | --- | --- | --- | --- | --- | --- |
| Cc1ccc(C2OC(N)=NC2C)cc1 (stereo not drawn) [cis-4,4’-DMAR, 4-methyl-5-(4-methylphenyl)-4,5-dihydrooxazol-2-amine] | ineffective | increased | increased | large increase | increased | overexpressed | metabolised and excreted | increased | significant increase | increase | – | – | – | – | – |
| Cc1ccc(C2OC(N)=NC2C)cc1 (stereo not drawn) [trans-4,4’-DMAR, 4-methyl-5-(4-methylphenyl)-4,5-dihydrooxazol-2-amine] | – | – | – | – | – | – | not metabolised | – | – | – | ineffective | ineffective | ineffective | ineffective | did not exhibit |
